Measured values published in paper PMC12175168, “Refining the Amino Reactivity-Based Identification of Respiratory Sensitizers” (Chemical Research in Toxicology, 2025).
Several values for one entry are separate records, joined by “and”; a condition that tells them apart may be missing. Equal values may be shown once. Entries after “also recorded” stand apart in the source; their conditions may differ. Read-outs that look alike come from different tables or passages of the source. Marks after values point to notes of the source that are not given here.

Assays:
[1] = DPRA-like chemoassay with Gly-pNA (24 h percent depletion); details: PPB pH 7.4, 24 h, 25 °C, 50-fold excess of test compound
Description: (§1) In addition to the kinetic Gly-pNA chemoassay, the reactivity of the 27 compounds toward Gly-pNA and Lys-pNA was determined in terms of percentage depletions after reacting for 24 h at 25 °C employing the following DPRA-like setup: stock solutions for the test compounds were prepared by gravimetrically adding at least 3 mg of the respective compound into a glass vial (total volume 1.8 mL) and subsequent addition of 1 mL ACN. […] The stock solutions for Gly-pNA and Lys-pNA with a final concentration of 1.7 mM were prepared by dissolving the required amount in one of the three aqueous buffer solutions used for this DPRA-like chemoassay: phosphate buffer (80 mM, pH 7.4), phosphate buffer (80 mM, pH 10.2), and ammonium acetate buffer (100 mM, pH 10.2). Glass vials (1.8 mL) were used as reaction vessels.
(§2) In the final reaction mixtures, the concentration of Gly-pNA or Lys-pNA was 0.03 mM, and the test compound was 50 times in excess (1.5 mM). After incubation for 24 h at 25 °C, the free amount of either Gly-pNA or Lys-pNA was determined using the HPLC UV–vis method described for the kinetic Gly-pNA chemoassay. , The percentage depletion of Gly-pNA (D Gly) or Lys-pNA (D Lys) was determined directly from peak areas according to eq 3 Dx[%]=(Axcontrol−Ax/Axcontrol×100)withx=GlyorLys
(§3) In eq , A x and A x ^control are the peak areas of the chromatographic signal of either Gly-pNA (x = Gly) or Lys-pNA (x = Lys) at 315 nm after 24 h incubation with and without test compound, respectively.
(§4) Summary of experimental conditions of the DPRA-like setups used to determine
(§5) DGly, D Lys, and D DPRA data in Table 2 (main text).
(§6) Table S2. Overview of experimental conditions for the DPRA-like setups used to
(§7) determine 24 h percentage depletion rates for the reaction of the test compounds with
(§8) Gly-pNA, Lys-pNA, and the DPRA lysine peptide (literature data).

[2] = DPRA-like chemoassay with Lys-pNA (24 h percent depletion); details: 25 °C, 50-fold excess of test compound
Description: as §1, §2, §3, §4, §5, §6, §7, §8

[3] = Stability assessment of test compounds in aqueous buffers (half-lives)
Description: To this end, the test compound was dissolved in 1 mL ACN in a glass vial. […] As reaction batches, 1.8 mL glass vials equipped with 400 μL glass inserts were used and filled with 220 μL of the respective aqueous buffer and 80 μL of the test compound stock solution. The depletion of the test compounds was recorded with the HPLC UV–vis instrument used for the kinetic Gly-pNA chemoassay. , Chromatographic separation of the reaction mixture was achieved using the gradient described for the Gly-pNA chemoassay previously , and an isocratic HPLC method (water/ACN 70:30, both with 0.1 vol % formic acid). The wavelengths used for the detection of the compound and the information on the used chromatographic method are given in the Supporting Information in Table S3.

DPRA lysine peptide = test system: DPRA lysine peptide; set-up: method as in literature; details: AAB pH 10.2, 24 h; ref literature; cited from earlier work
[4] = ref Krutz et al., Sadekar et al., Ponder et al., Karol et al., Hopkins et al.; cited from earlier work
[5] = Kinetic Gly-pNA chemoassay (second-order rate constant k Gly); details: reaction with Gly-pNA, nominal test compound concentration; for k Gly ± s(k Gly), second-order rate constant: phosphate buffer 80 mM, 25 °C, ≥ values are minimum reactivity; for log k Gly: phosphate buffer;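 on all read-outs here: Gly-pNA depletion followed over time by chromatographic peak area, with test compound in at least tenfold excess (pseudo-first-order), added from acetonitrile stock, at least three runs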
Description: The reactivity of the 27 test compounds toward Gly-pNA was quantified in terms of the second-order reaction rate constant k Gly using our Gly-pNA chemoassay. , In brief, stock solutions of the test compound were freshly obtained every day by gravimetrically adding the required amount into a 10 mL volumetric flask, which was subsequently filled to volume with acetonitrile (ACN). The required amounts of test compounds depended on their reactivity toward Gly-pNA. […] As usual for kinetic studies, fast reacting chemicals are applied at lower concentrations than little reactive candidates. All stock solutions were stored at 25 °C in a climate chamber before first use (ca. 30 min) and for repeating an experiment (max. 6 h). Gly-pNA stock solution (1.69 mM) was obtained by dissolving 3.3 mg Gly-pNA in 10 mL phosphate buffer solution (80 mM) and could be used for several weeks if stored at 4 °C. For all chemoassay experiments, 1.8 mL glass vials were used as reaction batches, which were initially filled with 1070 μL phosphate buffer (80 mM) and 30 μL Gly-pNA stock solution. To start the reaction, 400 μL of the test compound stock solutions was added. […] The time between the start of the reaction and the first analysis was measured with an electronic time clock. All reactions were performed under pseudo-1st order conditions with the electrophile being at least ten times in excess over Gly-pNA.
For these compounds, the minimum reactivity was estimated in terms of k Gly by plotting ln (A Gly ^ t /A Gly ^0) vs reaction time t (with A Gly ^ t and A Gly ^0 being the peak areas under the chromatographic signal for Gly-pNA at time t and at the beginning of the reaction (t = 0)). Linear regression through 0 (at t = 0) and the first measurement point yields slope s (see Figure S1) which is the pseudo-1st order rate constant k Gly ^pseudo that can be converted with the initial test compound concentration in the reactions mixture (c) into k Gly according to eq . 1 kGly=kGlypseudo/c
2 Ln(AGlyt/AGly0)≈−kGly·c·t+0.5·kGly·kloss·c·t^2 Here k loss is the first order rate constant covering all processes contributing to the loss of the test compounds, except the reaction with Gly-pNA. The regression parameter of the linear part of eq (= k Gly·c) is the pseudo-1st order rate constant k Gly ^pseudo and can be converted into k Gly according to eq (see above).
Linear regression of these plots provides slope s, which is again the pseudo-1st order rate constant, k Gly ^pseudo, and can be used to calculate k Gly according to eq . All experiments to determine k Gly have been conducted at least three times.

[6] = set-up: method as in our previous work; details: reaction with Gly-pNA; ref our previous work; cited from earlier work
[7] = set-up: method as in our previous work; details: PPB pH 7.4, 24 h; ref our previous work; cited from earlier work
[8] = AAB (ammonium acetate buffer) pH 10.2, 24 h
[9] = buffer, pH 7.4, half-lives t 1/2 ± s(t 1/2), PPB (phosphate buffer 80 mM) pH 7.4
[10] = buffer, pH 10.2, half-lives t 1/2 ± s(t 1/2), AAP (ammonium acetate buffer 100 mM) pH 10.2
[11] = buffer, pH 10.2, half-lives t 1/2 ± s(t 1/2), PPB (phosphate buffer 80 mM) pH 10.2
[12] = PPB (phosphate buffer 80 mM) pH 7.4
[13] = aqueous ammonium acetate buffer with acetonitrile, pH 10.2
[14] = aqueous phosphate buffer with acetonitrile, pH 7.4
[15] = aqueous phosphate buffer with acetonitrile, pH 10.2

Structure (SMILES) | D Gly ± s(D Gly), 24 h percent depletion of Gly-pNA [1] | D Lys ± s(D Lys), 24 h percent depletion of Lys-pNA [2, 8] [%] | D Lys ± s(D Lys), 24 h percent depletion of Lys-pNA ([2]; PPB pH 10.2, 24 h) [%] | half-life [3, 9] [min] | half-life [3, 10] [min] | half-life [3, 11] [min] | D DPRA ± s(D DPRA), depletion of the DPRA lysine peptide (DPRA lysine peptide) [%] | Classification as potential respiratory sensitizer or non-sensitizer [4] | k Gly ± s(k Gly), second-order rate constant [5] | log k Gly [5] | half-lives t 1/2 ± s(t 1/2) [3, 12] | half-life [3, 13] [min] | half-life [3, 14] [min] | half-life [3, 15] [min] | half-lives t 1/2 ± s(t 1/2) ([3]; AAP (ammonium acetate buffer 100 mM) pH 10.2) | half-lives t 1/2 ± s(t 1/2) ([3]; PPB (phosphate buffer 80 mM) pH 10.2) | k Gly ± s(k Gly), second-order rate constant [6] [L mol^–1 min^–1] | log k Gly [6] | D Gly, 24 h percent depletion of Gly-pNA [7]
O=C=Nc1ccc(Cc2ccc(N=C=O)cc2)cc1 [A4, 4,4′-methylene diphenyl diisocyanate] | 100% | 22.9 ± 4.4 | 100 | 5.9 ± 1 | < 1 | 4.6 ± 0.3 | 23.0 ± 6.2 | potential respiratory sensitizer | ≥20015 ± 4486 L mol^–1 min^–1 |  |  |  |  |  |  |  |  |  | 
O=C=Nc1ccccc1 [A5, phenyl isocyanate] | 100% | 10.2 ± 0.7 | 100 | < 1 | < 1 | < 1 | 48.4 ± 1.1 | potential respiratory sensitizer | ≥2368 ± 309 L mol^–1 min^–1 | ≥3.37 |  |  |  |  |  |  |  |  | 
O=C1OC2(c3ccc(O)cc3Oc3cc(O)ccc32)c2ccc(N=C=S)cc21 [B3, fluorescein isothiocyanate] | 100% | 56.5 ± 0.3 | 100 |  | 8.21 ± 0.18 | 3500 ± 236 | 61.1 | potential respiratory sensitizer | 15.1 ± 2.6 L mol^–1 min^–1 |  | no depletion |  |  |  |  |  |  |  | 
O=C1OC(=O)c2ccccc21 [C1, phthalic anhydride] | 100% | 22.6 ± 7.4 | 100 |  |  |  | 69.2 ± 22.0 | potential respiratory sensitizer | ≥22480 ± 1197 L mol^–1 min^–1 |  |  | < 1 | 89.5 ± 4.1 | < 1 |  |  |  |  | 
O=C(O)c1ccc2c(c1)C(=O)OC2=O [C2, trimellitic anhydride] | 100% | 15.2 ± 0.6 | 100 |  |  |  | 59.9 ± 22.0 | potential respiratory sensitizer | ≥22271 ± 1975 L mol^–1 min^–1 | 4.35 |  | < 1 | 110 ± 10 | 1 |  |  |  |  | 
O=C1OC(=O)c2c(Cl)c(Cl)c(Cl)c(Cl)c21 [C3, tetrachlorophthalic anhydride] | 100% | 11.5 ± 1.8 | 99.2 ± 0.7 | 24.3 ± 0.6 | < 1 | < 1 | 83.5 ± 0.7 | potential respiratory sensitizer | ≥9816 ± 858 L mol^–1 min^–1 | 3.99 |  |  |  |  |  |  |  |  | 
O=C1OC(=O)C2CCCCC12 (stereo not drawn) [D1, hexahydrophthalic anhydride] | 100% | 12.5 ± 0.5 | 100 |  |  |  | 56.4 ± 29.4 | potential respiratory sensitizer | 2900 ± 110 L mol^–1 min^–1 | 3.46 |  | < 1 | 4.36 ± 0.36 | 1.2 |  |  |  |  | 
O=[N+]([O-])c1ccc(S(=O)(=O)O)c([N+](=O)[O-])c1 [E5, 2,4-dinitrobenzenesulfonic acid] | 5.9% and 5.9 ± 0.3% | 0.9 ± 0.1 | 0 |  |  |  | 27.4 | non-sensitizer | not reactive |  | no depletion |  |  |  | did not show any significant signal depletion; also recorded: no depletion | no depletion |  |  | 
C=CC(=O)OC [F2, methyl acrylate] | 16.6 ± 0.4% | 55.5 ± 0.7 | 67.9 ± 1.6 |  | 629 ± 48 | 943 ± 63 | 86.5 ± 5.2 | non-sensitizer | 0.108 ± 0.005 L mol^–1 min^–1 | –0.97 | no depletion |  |  |  |  |  |  |  | 
C=CC(=O)OCCCC [F3, butyl acrylate] | 15.2 ± 0.2% | 61.3 ± 0.4 | 74.4 ± 1.5 |  | 929 ± 59 | 4250 ± 1800 | 87.8 ± 3.8 | non-sensitizer | 0.0826 ± 0.0141 L mol^–1 min^–1 | –1.08 | no depletion |  |  |  |  |  |  |  | 
C=CC(=O)OCC [F4, ethyl acrylate] | 14.4 ± 0.6% | 55.8 ± 0.4 | 67.1 ± 1.4 |  |  |  | 90.3 ± 6.6 | non-sensitizer | 0.0795 ± 0.0001 L mol^–1 min^–1 |  | no depletion | 880 ± 119 |  | 1350 ± 172 |  |  |  |  | 
O=CCCCC=O [G1, glutaraldehyde] |  | 7.2 ± 1.7 | 97.9 ± 0.6 |  |  |  | 82.8 ± 7.6 |  |  |  |  |  |  |  |  |  | 17731 ± 2525 | 4.25 | 100 ^c %
